ChEMBL document CHEMBL5579865, “Discovery of Broad-Spectrum Herpes Antiviral Oxazolidinone Amide Derivatives and Their Structure-Activity Relationships” (ACS Med Chem Lett, 2024)
Values after ≈ are worked out from the molar mass of the structure shown.

What was measured:
Human alphaherpesvirus 2 = test: Antiviral activity against HSV-2 G strain infected in African green monkey Vero cells assessed as reduction in viral replication incubated for 72 hrs by qRT-PCR analysis; assay type: functional, organism-based
[1] = Inhibition of HCMV DNA polymerase extracted from baculovirus infected Sf21 cells using Heterodimeric nucleic acid as substrate preincubated with enzyme for 30 mins followed by substrate and dATP addition measured after 60 mins by biotinylated UTP incorporation based AlphaLISA assay; set-up: species or system Human betaherpesvirus 5
Human alphaherpesvirus 1 = test: Antiviral activity against HSV-1 F strain infected in African green monkey Vero cells assessed as reduction in viral replication incubated for 72 hrs by qRT-PCR analysis; assay type: functional, organism-based
Human alphaherpesvirus 3 = test: Antiviral activity against VZV Street infected in human MeWo cells assessed as reduction in viral replication incubated for 72 hrs by qRT-PCR analysis; assay type: functional, organism-based
Human betaherpesvirus 5 = test: Antiviral activity against HCMV AD169 infected in human MRC5 cells assessed as reduction in viral replication incubated for 72 hrs in presence of 50 % serum by qRT-PCR analysis; assay type: functional, organism-based
[2] = Inhibition of VZV DNA polymerase extracted from baculovirus infected Sf21 cells using Heterodimeric nucleic acid as substrate preincubated with enzyme for 30 mins followed by substrate and dATP addition measured after 60 mins by biotinylated UTP incorporation based AlphaLISA assay; set-up: species or system Human alphaherpesvirus 3
[3] = Solubility in PBS at pH 7; assay type: physicochemical
[4] = Metabolic stability in human liver microsomes assessed as intrinsic clearance; assay type: ADME, Microsome; conditions: read-out: CLH
[5] = Human alphaherpesvirus 2, G strain, Vero, 72 h, read-out: EC50
[6] = Human alphaherpesvirus 1, F strain, Vero, 72 h, read-out: EC50
[7] = Human alphaherpesvirus 3, Street, MeWo, 72 h, read-out: EC50
[8] = Human betaherpesvirus 5, AD169, MRC5, 72 h, read-out: EC50

O=C(Cc1ccc(Cl)cc1)Nc1ccc(C[C@H]2COC(=O)N2)cc1
EC50 (Human alphaherpesvirus 2; [5]): 1340 nM
IC50 [1]: 250 nM
EC50 (Human alphaherpesvirus 1; [6]): 530 nM
EC50 (Human alphaherpesvirus 3; [7]): 500 nM
EC50 (Human betaherpesvirus 5; [8]): 4320 nM
IC50 [2]: 180 nM

Cc1nccn1Cc1ccc(NC(=O)Cc2ccc(Cl)cc2)cc1
IC50 [1]: 55000 nM
IC50 [2]: 34800 nM

CS(=O)(=O)c1cccc(Cc2ccc(NC(=O)Cc3ccc(Cl)cc3)cc2)c1
IC50 [1]: 13300 nM
IC50 [2]: 12500 nM

O=C(Cc1ccc(Cl)cc1)Nc1cnc(C[C@H]2COC(=O)N2)cn1
EC50 (Human alphaherpesvirus 2; [5]): 44800 nM
IC50 [1]: 6500 nM
EC50 (Human alphaherpesvirus 1; [6]): 25700 nM
EC50 (Human alphaherpesvirus 3): Not Active
EC50 (Human betaherpesvirus 5; [8]): 94000 nM
IC50 [2]: 2090 nM

COc1cc(NC(=O)Cc2c(F)cc(Cl)cc2F)ccc1C[C@H]1COC(=O)N1
solubility [3]: 7 µM (≈ 2.88 µg/mL)
EC50 (Human alphaherpesvirus 2; [5]): 874 nM
IC50 [1]: 69 nM
EC50 (Human alphaherpesvirus 1; [6]): 564 nM
EC50 (Human alphaherpesvirus 3; [7]): 182 nM
EC50 (Human betaherpesvirus 5; [8]): 614 nM
IC50 [2]: 46 nM

O=C(Cc1ccc(Cl)cc1Cl)Nc1ccc(C[C@H]2COC(=O)N2)cc1
EC50 (Human alphaherpesvirus 2; [5]): 910 nM
IC50 [1]: 130 nM
EC50 (Human alphaherpesvirus 1; [6]): 810 nM
EC50 (Human alphaherpesvirus 3; [7]): 540 nM
EC50 (Human betaherpesvirus 5; [8]): 1340 nM
IC50 [2]: 130 nM

N#CCc1ccc(NC(=O)Cc2ccc(Cl)cc2)cc1
IC50 [1]: 50800 nM
IC50 [2]: 40900 nM

COc1cc(NC(=O)C2CCc3cc(Cl)ccc32)ccc1C[C@H]1COC(=O)N1 (some centres undefined)
solubility [3]: 57 µM (≈ 22.8 µg/mL)
EC50 (Human alphaherpesvirus 2; [5]): 384 nM
IC50 [1]: 26 nM
EC50 (Human alphaherpesvirus 1; [6]): 249 nM
CLint scaled [4]: 63 mL/min/kg
EC50 (Human alphaherpesvirus 3; [7]): 240 nM
EC50 (Human betaherpesvirus 5; [8]): 560 nM
IC50 [2]: 20 nM

CN1C(=O)OC[C@@H]1Cc1ccc(NC(=O)Cc2ccc(Cl)cc2)cc1
EC50 (Human alphaherpesvirus 2): Not Active
IC50 [1]: 2550 nM
EC50 (Human alphaherpesvirus 1): Not Active
EC50 (Human alphaherpesvirus 3): Not Active
EC50 (Human betaherpesvirus 5): Not Active
IC50 [2]: 1840 nM

N#CC1(c2ccc(NC(=O)Cc3ccc(Cl)cc3)cc2)CC1
IC50 [1]: 8300 nM
IC50 [2]: 2700 nM

CCOc1cc(NC(=O)Cc2ccc(Cl)cc2)ccc1C[C@H]1COC(=O)N1
solubility [3]: 76 µM (≈ 29.6 µg/mL)
EC50 (Human alphaherpesvirus 2; [5]): 37 nM
IC50 [1]: 45 nM
EC50 (Human alphaherpesvirus 1; [6]): 97 nM
CLint scaled [4]: 29 mL/min/kg
EC50 (Human alphaherpesvirus 3; [7]): 85 nM
EC50 (Human betaherpesvirus 5; [8]): 1200 nM
IC50 [2]: 18 nM

O=C(Cc1ccc(Cl)cc1)Nc1ccc(Cc2ccccc2)cc1
IC50 [1]: > 133000 nM
IC50 [2]: 67000 nM

O=C(Cc1ccc(Cl)cc1)Nc1ccc(C(=O)c2ccccc2)cc1
IC50 [1]: 18000 nM
IC50 [2]: 24700 nM

COc1cc(NC(=O)Cc2ccc(C#N)c(F)c2)ccc1C[C@H]1COC(=O)N1
EC50 (Human alphaherpesvirus 2; [5]): 551 nM
IC50 [1]: 46 nM
EC50 (Human alphaherpesvirus 1; [6]): 494 nM
EC50 (Human alphaherpesvirus 3; [7]): 265 nM
EC50 (Human betaherpesvirus 5; [8]): 141 nM
IC50 [2]: 28 nM

CC(C(=O)Nc1ccc(C[C@H]2COC(=O)N2)cc1)c1ccc(Cl)cc1 (some centres undefined)
EC50 (Human alphaherpesvirus 2): Not Active
IC50 [1]: 7190 nM
EC50 (Human alphaherpesvirus 1): Not Active
EC50 (Human alphaherpesvirus 3): Not Active
EC50 (Human betaherpesvirus 5): Not Active
IC50 [2]: 7730 nM

CC(=O)c1ccc(NC(=O)Cc2ccc(Cl)cc2)cc1
IC50 [1]: 6600 nM
IC50 [2]: 4800 nM

O=C(Cc1ccc(Cl)cc1)Nc1ccc(CC(F)(F)F)cc1
IC50 [1]: 133000 nM
IC50 [2]: 77900 nM

O=C1NC(Cc2ccc(C(=O)NCc3ccc(Cl)cc3)cc2)CO1 (centres undefined)
EC50 (Human alphaherpesvirus 2): Not Active
IC50 [1]: 116000 nM
EC50 (Human alphaherpesvirus 1): Not Active
EC50 (Human alphaherpesvirus 3): Not Active
EC50 (Human betaherpesvirus 5): Not Active
IC50 [2]: 26000 nM

COc1cc(NC(=O)Cc2ccc(C#N)cc2)ccc1C[C@H]1COC(=O)N1
EC50 (Human alphaherpesvirus 2; [5]): 789 nM
IC50 [1]: 52 nM
EC50 (Human alphaherpesvirus 1; [6]): 297 nM
EC50 (Human alphaherpesvirus 3; [7]): 131 nM
EC50 (Human betaherpesvirus 5; [8]): 186 nM
IC50 [2]: 15 nM

O=C(Cc1ccc(Cl)cc1)Nc1cc(Cl)c(C[C@H]2COC(=O)N2)cn1
EC50 (Human alphaherpesvirus 2; [5]): 64500 nM
IC50 [1]: 6310 nM
EC50 (Human alphaherpesvirus 1; [6]): 33700 nM
EC50 (Human alphaherpesvirus 3): Not Active
EC50 (Human betaherpesvirus 5; [8]): 99000 nM
IC50 [2]: 2870 nM

CC(C)(c1ccccc1)c1ccc(NC(=O)Cc2ccc(Cl)cc2)cc1
IC50 [1]: > 133000 nM
IC50 [2]: > 133000 nM

O=C(Cc1ccc(Cl)cc1)Nc1ccc(C[C@@H]2COC(=O)N2)cc1
EC50 (Human alphaherpesvirus 2; [5]): 8690 nM
IC50 [1]: 2810 nM
EC50 (Human alphaherpesvirus 1; [6]): 7300 nM
EC50 (Human alphaherpesvirus 3; [7]): 14800 nM
EC50 (Human betaherpesvirus 5; [8]): 55600 nM
IC50 [2]: 790 nM

O=C1N[C@@H](Cc2ccc(NS(=O)(=O)Cc3ccc(Cl)cc3)cc2)CO1
EC50 (Human alphaherpesvirus 2): Not Active
IC50 [1]: 104000 nM
EC50 (Human alphaherpesvirus 1): Not Active
EC50 (Human alphaherpesvirus 3): Not Active
EC50 (Human betaherpesvirus 5): Not Active
IC50 [2]: 12700 nM

O=C(Cc1ccc(Cl)cc1)Nc1ccc(CC2COC(=O)N2)cn1 (racemic)
EC50 (Human alphaherpesvirus 2; [5]): 11400 nM
IC50 [1]: 4100 nM
EC50 (Human alphaherpesvirus 1; [6]): 13300 nM
EC50 (Human alphaherpesvirus 3; [7]): 4460 nM
EC50 (Human betaherpesvirus 5; [8]): 61700 nM
IC50 [2]: 2110 nM

COc1cc(NC(=O)Cc2ccc(F)c(Cl)c2)ccc1C[C@H]1COC(=O)N1
EC50 (Human alphaherpesvirus 2; [5]): 5250 nM
IC50 [1]: 357 nM
EC50 (Human alphaherpesvirus 1; [6]): 2150 nM
EC50 (Human alphaherpesvirus 3; [7]): 441 nM
EC50 (Human betaherpesvirus 5; [8]): 7070 nM
IC50 [2]: 236 nM

O=C1CC(c2ccc(NC(=O)Cc3ccc(Cl)cc3)cc2)CN1 (racemic)
IC50 [1]: 23300 nM
IC50 [2]: 8200 nM

CN(C(=O)Cc1ccc(Cl)cc1Cl)c1ccc(C[C@H]2COC(=O)N2)cc1
EC50 (Human alphaherpesvirus 2): Not Active
IC50 [1]: 14600 nM
EC50 (Human alphaherpesvirus 1): Not Active
EC50 (Human alphaherpesvirus 3): Not Active
EC50 (Human betaherpesvirus 5): Not Active
IC50 [2]: 14100 nM

COc1cc(NC(=O)Cc2ccc(Cl)c(F)c2)ccc1C[C@H]1COC(=O)N1
EC50 (Human alphaherpesvirus 2; [5]): 647 nM
IC50 [1]: 97 nM
EC50 (Human alphaherpesvirus 1; [6]): 299 nM
EC50 (Human alphaherpesvirus 3; [7]): 126 nM
EC50 (Human betaherpesvirus 5; [8]): 1940 nM
IC50 [2]: 36 nM

COc1cc(NC(=O)Cc2ccc(Cl)cc2F)ccc1C[C@H]1COC(=O)N1
solubility [3]: 153 µM (≈ 60.1 µg/mL)
EC50 (Human alphaherpesvirus 2; [5]): 589 nM
IC50 [1]: 45 nM
EC50 (Human alphaherpesvirus 1; [6]): 214 nM
CLint scaled [4]: 16 mL/min/kg
EC50 (Human alphaherpesvirus 3; [7]): 23 nM
EC50 (Human betaherpesvirus 5; [8]): 1130 nM
IC50 [2]: 17 nM

O=C1N[C@@H](Cc2ccc3c(c2)OCC(Cc2ccc(Cl)cc2)N3)CO1 (some centres undefined)
EC50 (Human alphaherpesvirus 2; [5]): 5240 nM
IC50 [1]: 490 nM
EC50 (Human alphaherpesvirus 1; [6]): 3120 nM
EC50 (Human alphaherpesvirus 3; [7]): 3060 nM
EC50 (Human betaherpesvirus 5; [8]): 13100 nM
IC50 [2]: 350 nM

COc1cc(NC(=O)Cc2ccc(Cl)cc2)c(C)cc1C[C@H]1COC(=O)N1
EC50 (Human alphaherpesvirus 2): Not Active
IC50 [1]: 10800 nM
EC50 (Human alphaherpesvirus 1): Not Active
EC50 (Human alphaherpesvirus 3): Not Active
EC50 (Human betaherpesvirus 5): Not Active
IC50 [2]: 13900 nM

O=C(Cc1ccc(Cl)cc1)Nc1ccc(CC2COC(=O)N2)cc1 (racemic)
solubility [3]: 7 µM (≈ 2.41 µg/mL)
EC50 (Human alphaherpesvirus 2; [5]): 3850 nM
IC50 [1]: 340 nM
EC50 (Human alphaherpesvirus 1; [6]): 260 nM
EC50 (Human alphaherpesvirus 3; [7]): 2130 nM
EC50 (Human betaherpesvirus 5; [8]): 12800 nM
IC50 [2]: 180 nM

O=C(Cc1ccc([N+](=O)[O-])cc1)Nc1ccc(C[C@H]2COC(=O)N2)cc1
EC50 (Human alphaherpesvirus 2; [5]): 473 nM
IC50 [1]: 176 nM
EC50 (Human alphaherpesvirus 1; [6]): 177 nM
EC50 (Human alphaherpesvirus 3; [7]): 185 nM
EC50 (Human betaherpesvirus 5; [8]): 720 nM
IC50 [2]: 79 nM

O=C(Cc1ccc(Cl)cc1)Nc1ccc(Cn2cncn2)cc1
IC50 [1]: 12100 nM
IC50 [2]: 4500 nM

C[C@H](c1ccc(NC(=O)Cc2ccc(Cl)cc2)cc1)[C@H]1COC(=O)N1
EC50 (Human alphaherpesvirus 2): Not Active
IC50 [1]: 16700 nM
EC50 (Human alphaherpesvirus 1): Not Active
EC50 (Human alphaherpesvirus 3): Not Active
EC50 (Human betaherpesvirus 5): Not Active
IC50 [2]: 6500 nM
